These results are taken from US6596712B2, “Treatment of carcinomas using squalamine in combination with other anti-cancer agents or modalities” (Genaera Corporation, priority 1996, dated 2003).

Series [1] concerns human MX-1 breast cancer line. Format: in vivo. As to the method:
These documents each are entirely incorporated herein by reference. Squalamine was examined as adjunctive therapy following a single 200 mg/kg dose of cyclophosphamide. The cyclophosphamide was injected on day 14 following implantation of the tumor, at a time when the tumors measured 65-125 μl. […] The animals were then randomized to three treatment arms (each n=27): vehicle dosing only (Intralipid); squalamine given 10 mg/kg/day in Intralipid; and squalamine given 20 mg/kg/day in Intralipid for five days a week. Animals whose tumors exceeded 2 grams at any time during the experiment were euthanized. The experiment was continued for 90 days after initiating squalamine treatment to ensure that only mice experiencing long-term cures were still alive.

Series [2] deals with 9L and C6 rat glioma cells, human H80 glioma cells, VX2 rabbit carcinoma cells. In words: Proliferation of tumor cell lines. Format: cell-based. How it is done:
(§1) In conducting this in vitro analysis, the following cell lines were tested: (a) bovine retinal endothelial cells; (b) 9L and C6 rat glioma cells; (c) human H80 glioma cells; and (d) VX2 rabbit carcinoma cells (the same type as the tumors implanted in the rabbit corneal micropocket assay test described above). The endothelial mitogen which was used in this analysis was VEGF at a concentration of 20 ng/ml.
(§2) The cells were allowed to attach overnight to tissue culture plates containing an optimized growth media. Following attachment, the cells were exposed to solvent only or 5 to increasing concentrations of squalamine (0, 10, 20, 30, 60, and 90 μg squalamine/ml). Cell growth was counted daily for three days using a Coulter Counter. A total of 10,000 cells per well were plated and each experimental concentration was tested in quadruplicate. The results were then averaged. The bovine retinal endothelial cells were grown and treated in an identical manner to the other cell lines, except that the growth of these cells was measured after the addition of 20 ng/ml of human recombinant VEGF to the cells prior to the squalamine treatment.
(§3) Percentage endothelial cell growth inhibition (%I) was determined by the following equation: [formula]

For the next series, the system named is H460. In words: H460 lung tumor xenograft with carboplatin. Format: in vivo, nude BALBc mice. The conditions noted are these: carboplatin 60 mg/kg i.p. single dose, squalamine 20 mg/kg once daily for 5 days. As to the method: About 5×10^6 cells from each of two human lung tumor lines, H460 (a rapidly proliferating large cell carcinoma cell line, ATCC HTB-177) and Calu-6 (an anaplastic carcinoma, ATCC HTB-56), were inoculated subcutaneously in the right foreleg of nude BALBc mice. Once tumors were visible (3-5 days) with a mean volume of approximately 50-80 mm^3, mice were treated intraperitoneally with 60 mg/kg carboplatin (single dose) or 20 mg/kg/squalamine (once daily for 5 days) or a combination of carboplatin and squalamine. There were 8 mice per group. Tumor growth inhibition was scored by quantifying the size of tumors once control tumors reached a size of 1.0 gram and determining the ratio of mean treated tumor size to mean control tumor size (T/C). Tumor growth inhibition was then scored as 100% x [1-(T/C)]. A separate antitumor activity variable, tumor growth delay, was scored for the tumors by determining the length of time it required for the mean tumor size in a treatment group to reach a size of 500 mm^3 (B. A. Teicher et al., Anticancer Research 18, 2567-2574 (1998)). The tumor growth inhibition seen with carboplatin plus squalamine was greater than that seen with carboplatin or squalamine alone. The relative inactivity of squalamine as a single agent by this assay endpoint supports the idea that squalamine is synergistic with carboplatin in the inhibition of these two human lung tumor xenografts. Similarly, it was determined that squalamine enhanced the tumor growth delay caused by carboplatin by an enhancement factor of >2.3 (Table 7).

In the next series the test system is C4-2 cells. In words: C4-2 cell growth in vitro ([3H]-thymidine incorporation). Format: cell-based, human. As to the method:
The anti-proliferative effect of squalamine was evaluated in tissue culture by both crystal violet staining and [^3H]-thymidine incorporation, on the LNCaP/C4-2 human prostate cancer progression model. Developed by applicants' laboratory, this lineage-derived cell line recapitulates the progression of human neoplastic prostate disease from an androgen-dependent and minimally metastatic condition (LNCaP cells) to an androgen-independent (defined as being able to proliferate in castrate hosts) and highly aggressive state (C4-2 subline).

Series [3] relates to VEGF-stimulated bovine retinal endothelial cells. In words: Growth of VEGF-stimulated endothelial cells. Format: cell-based. Conditions: Bos taurus, Endothelial cell, 48 hours, VEGF 20 ng/ml. As to the method: as §1, §2, §3
Series [4] can be described thus: Tissue distribution after i.v. administration. Format: in vivo, mouse. The conditions noted are these: two hours after i.v. administration. The text has this:
In addition to these squalamine half-life tests, applicants have tested to ascertain the distribution of squalamine in a mouse after intravenous administration. FIG. 7 illustrates the distribution of squalamine in mouse tissue two hours after i.v. administration. […] The test results shown in FIG. 7 indicate good squalamine distribution. […] In treating brain tumors, it is believed that the squalamine acts on the endothelial cells in the brain, and in this way, it need not cross the brain/blood barrier

As to `CC(C)[C@@H](CC[C@@H](C)[C@H]1CC[C@H]2[C@@H]3[C@H](O)C[C@H]4C[C@@H](NCCCNCCCCN)CC[C@]4(C)[C@H]3CC[C@]12C)OS(=O)(=O)O` [Squalamine, squalamine], in series [1] (squalamine 10 mg/kg/day after single 200 mg/kg cyclophosphamide, all times examined), the “rate of progression of the breast tumors” value is reported as “significant (P<0.01) inhibition in the rate of progression of the breast tumors”. Moreover, the “progression of the breast tumors” value in series [1] (squalamine 20 mg/kg/day after single 200 mg/kg cyclophosphamide, only at 30 days post-initiation) is listed as “significant (P<0.05) delay in progression of the breast tumors”. Moreover, the “long-term cure rate vs cyclophosphamide alone” value in series [1] (squalamine 20 mg/kg/day for five weeks after cyclophosphamide, 90 days) was “doubled the long-term cure rate”. Further, in series [1] (squalamine 20 mg/kg/day, discontinued after five weeks), the “tolerability of high dose” value was “animal weight loss and potential toxicity concerns”. In series [2] (30 μg/ml, 1, 2 and 3 days (FIG. 9)), the “growth of H80, C6 and VX2 cell lines as percentage of control” value is “not dramatically affected”. Moreover, the “cell proliferation by all tumor lines” value in series [2] (24 and 48 hours, up to 30 μg/ml) is “statistically unaffected”. Besides, in the series on H460, the “Tumor Growth Inhibition (T/C)” value is recorded as 6%. Besides, in the series on C4-2 cells (no exogenous VEGF), the “growth of C4-2 cells, squalamine by itself” value is given as “nominal effect”. Also, in the series on C4-2 cells (with addition of exogenous VEGF, to a greater extent than LNCaP), the C4-2 proliferation result is reported as “inhibited”. Also, the inhibition at 10 µg/mL in series [3] (10 μg/ml) amounted to 38%. Moreover, 20 µg/mL produced 57% inhibition in series [3] (20 μg/ml). In series [3] (30 μg/ml), this compound gave an inhibition at 30 µg/mL of 83%. In series [4], the “distribution in mouse tissue” value was “most of the squalamine concentrating in the liver and the small intestine”; the “squalamine in brain tissue” value is “not much squalamine is present in brain tissue”.
